Values of other authors, collected in PubChem BioAssay AID1259409 (Chemical Carcinogenesis Research Information System (CCRIS), 2018).

Tested on: rodent chemically induced tumor inhibition, incidence and multiplicity
Experiment: CCRIS tumor inhibitor studies
Settings: Carcinogen: BENZO[A]PYRENE, 50-32-8, Species: MOUSE, Promoter: NONE USED

SMILES: Oc1cccc(O)c1O
- tumour outcome (control, treated, inhibition, significance) (Dose [Inhibitor]: 5 MG IN 0.1 ML ACETONE 3/WK ADMINISTERED SIMULTANEOUSLY WITH CARCINOGEN FOR DURATION OF STUDY (STUDY DURATION: 440 D), Route [Inhibitor]: DERMAL, Strain/Sex: ICR/FEMALE, Target Tissue: Type of Lesion: SKIN: PAPILLOMA, Dose [Carcinogen]: 5 UG IN 0.1 ML ACETONE THAT ALSO CONTAINED AGENT 3/WK): 16/50 (32%), 40/50 (80%), -150%, not calculated
- tumour outcome (control, treated, inhibition, significance) (Dose [Inhibitor]: 5 MG IN 0.1 ML ACETONE 3/WK ADMINISTERED SIMULTANEOUSLY WITH CARCINOGEN FOR DURATION OF STUDY (STUDY DURATION: 440 D), Route [Inhibitor]: DERMAL, Strain/Sex: ICR/FEMALE, Target Tissue: Type of Lesion: SKIN: SQUAMOUS CARCINOMA, Dose [Carcinogen]: 5 UG IN 0.1 ML ACETONE THAT ALSO CONTAINED AGENT 3/WK): 12/50 (24%), 33/50 (66%), -175%, not calculated

SMILES: CC1(C)CCC2(C(=O)OC3OC(CO)C(O)C(O)C3O)CCC3(CO)C(=CCC4C5(C)CC(O)C(O)C(C)(C(=O)OC6OC(CO)C(O)C(O)C6O)C5CCC43C)C2C1 (centres undefined)
- tumour outcome (control, treated, inhibition, significance) (Dose [Inhibitor]: 0, 12.85 MG/ML IN DRINKING WATER FOR 6 WK (STUDY DURATION: 9 WK), Route [Inhibitor]: ORAL, Strain/Sex: NIGP(S)/FEMALE, Target Tissue: Type of Lesion: LUNG: ADENOMA, Dose [Carcinogen]: 0.5 MG INJECTED IN THE SCAPULAR REGION OF NEWBORN MICE ONCE): 56%, 53%, 5%, not calculated
- tumour outcome (control, treated, inhibition, significance) (Dose [Inhibitor]: 0, 12.85 MG/ML IN DRINKING WATER FOR 6 WK (STUDY DURATION: 9 WK), Route [Inhibitor]: ORAL, Strain/Sex: NIGP(S)/MALE, Target Tissue: Type of Lesion: LUNG: ADENOMA, Dose [Carcinogen]: 0.5 MG INJECTED IN THE SCAPULAR REGION OF NEWBORN MICE ONCE): 38%, 37%, 3%, not calculated
